Measured values reported in PubChem BioAssay (NCI).
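In this assay, cells in 96-well plates receive the compound at five concentrations for 48 hours. Endpoints are linearly interpolated between the surrounding concentrations. GI50 = concentration required for 50% inhibition of growth. TGI marks complete inhibition of growth.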

Assays:
Assay in all cases: DTP human tumour cell line panel, 48 h
SK-OV-3 ovarian = test system: SK-OV-3 ovarian
HT29 colon = test system: HT29 colon
ACHN renal = test system: ACHN renal
OVCAR-3 ovarian = test system: OVCAR-3 ovarian
NCI-H460 lung = test system: NCI-H460 lung
K-562 leukemia = test system: K-562 leukemia
T-47D breast = test system: T-47D breast
OVCAR-4 ovarian = test system: OVCAR-4 ovarian
OVCAR-5 ovarian = test system: OVCAR-5 ovarian
SW-620 colon = test system: SW-620 colon
MDA-MB-231 breast = test system: MDA-MB-231 breast
SNB-75 CNS = test system: SNB-75 CNS
CAKI-1 renal = test system: CAKI-1 renal
MALME-3M melanoma = test system: MALME-3M melanoma
SF-295 CNS = test system: SF-295 CNS
SK-MEL-28 melanoma = test system: SK-MEL-28 melanoma
EKVX NSCLC = test system: EKVX NSCLC
SF-268 CNS = test system: SF-268 CNS
MDA-MB-435 = test system: MDA-MB-435
RPMI-8226 leukemia = test system: RPMI-8226 leukemia
IGROV1 ovarian = test system: IGROV1 ovarian
PC-3 prostate = test system: PC-3 prostate
NCI-H23 lung = test system: NCI-H23 lung
MOLT-4 leukemia = test system: MOLT-4 leukemia
NCI-H522 lung = test system: NCI-H522 lung
OVCAR-8 ovarian = test system: OVCAR-8 ovarian
SN12C renal = test system: SN12C renal
SK-MEL-5 melanoma = test system: SK-MEL-5 melanoma
NCI/ADR-RES ovarian = test system: NCI/ADR-RES ovarian
SR leukemia = test system: SR leukemia
MCF7 breast = test system: MCF7 breast
DU-145 prostate = test system: DU-145 prostate
TK-10 renal = test system: TK-10 renal
A549 NSCLC = test system: A549 NSCLC
HCT-15 colon = test system: HCT-15 colon
RXF 393 renal = test system: RXF 393 renal
SK-MEL-2 melanoma = test system: SK-MEL-2 melanoma
CCRF-CEM leukemia = test system: CCRF-CEM leukemia
LOX IMVI melanoma = test system: LOX IMVI melanoma
HS 578T breast = test system: HS 578T breast
COLO 205 colon = test system: COLO 205 colon
HCC-2998 colon = test system: HCC-2998 colon
UO-31 renal = test system: UO-31 renal
NCI-H226 lung = test system: NCI-H226 lung
SNB-19 CNS = test system: SNB-19 CNS
HOP-92 NSCLC = test system: HOP-92 NSCLC
UACC-62 melanoma = test system: UACC-62 melanoma
U251 CNS = test system: U251 CNS
SF-539 CNS = test system: SF-539 CNS
UACC-257 melanoma = test system: UACC-257 melanoma
HL-60(TB) leukemia = test system: HL-60(TB) leukemia
KM12 colon = test system: KM12 colon
HCT-116 colon = test system: HCT-116 colon
BT-549 breast = test system: BT-549 breast
A498 renal = test system: A498 renal
M14 melanoma = test system: M14 melanoma
786-0 renal = test system: 786-0 renal
HOP-62 NSCLC = test system: HOP-62 NSCLC

COC(=O)C(C)N1C(=O)c2ccccc2I1OC(C)=O (centres undefined)
GI50 (SK-OV-3 ovarian): > 100 µM | TGI (SK-OV-3 ovarian): > 100 µM | GI50 (HT29 colon): 26.3 µM | TGI (HT29 colon): 97.5 µM | GI50 (ACHN renal): 30.2 µM | TGI (ACHN renal): > 100 µM | GI50 (OVCAR-3 ovarian): 23.3 µM | TGI (OVCAR-3 ovarian): > 100 µM | GI50 (NCI-H460 lung): > 100 µM | TGI (NCI-H460 lung): > 100 µM | GI50 (K-562 leukemia): 41.6 µM | TGI (K-562 leukemia): > 100 µM | GI50 (T-47D breast): 21 µM | TGI (T-47D breast): 82.6 µM | GI50 (OVCAR-4 ovarian): 51.3 µM | TGI (OVCAR-4 ovarian): > 100 µM | GI50 (OVCAR-5 ovarian): > 100 µM | TGI (OVCAR-5 ovarian): > 100 µM | GI50 (SW-620 colon): 15.5 µM | TGI (SW-620 colon): 29.5 µM | GI50 (MDA-MB-231 breast): 25.4 µM | TGI (MDA-MB-231 breast): > 100 µM | GI50 (SNB-75 CNS): 60.8 µM | TGI (SNB-75 CNS): > 100 µM | GI50 (CAKI-1 renal): > 100 µM | TGI (CAKI-1 renal): > 100 µM | GI50 (MALME-3M melanoma): 16.8 µM | TGI (MALME-3M melanoma): 54 µM | GI50 (SF-295 CNS): > 100 µM | TGI (SF-295 CNS): > 100 µM | GI50 (SK-MEL-28 melanoma): 88 µM | TGI (SK-MEL-28 melanoma): > 100 µM | GI50 (EKVX NSCLC): > 100 µM | TGI (EKVX NSCLC): > 100 µM | GI50 (SF-268 CNS): 69 µM | TGI (SF-268 CNS): > 100 µM | GI50 (MDA-MB-435): > 100 µM | TGI (MDA-MB-435): > 100 µM | GI50 (RPMI-8226 leukemia): 15.3 µM | TGI (RPMI-8226 leukemia): 37.6 µM | GI50 (IGROV1 ovarian): 37.2 µM | TGI (IGROV1 ovarian): > 100 µM | GI50 (PC-3 prostate): > 100 µM | TGI (PC-3 prostate): > 100 µM | GI50 (NCI-H23 lung): 40.3 µM | TGI (NCI-H23 lung): > 100 µM | GI50 (MOLT-4 leukemia): 22 µM | TGI (MOLT-4 leukemia): 45.7 µM | GI50 (NCI-H522 lung): 39.8 µM | TGI (NCI-H522 lung): > 100 µM | GI50 (OVCAR-8 ovarian): > 100 µM | TGI (OVCAR-8 ovarian): > 100 µM | GI50 (SN12C renal): 31.4 µM | TGI (SN12C renal): > 100 µM | GI50 (SK-MEL-5 melanoma): > 100 µM | TGI (SK-MEL-5 melanoma): > 100 µM | GI50 (NCI/ADR-RES ovarian): > 100 µM | TGI (NCI/ADR-RES ovarian): > 100 µM | GI50 (SR leukemia): 19.7 µM | TGI (SR leukemia): 49.2 µM | GI50 (MCF7 breast): 30.7 µM | TGI (MCF7 breast): > 100 µM | GI50 (DU-145 prostate): > 100 µM | TGI (DU-145 prostate): > 100 µM | GI50 (TK-10 renal): 29.2 µM | TGI (TK-10 renal): > 100 µM | GI50 (A549 NSCLC): > 100 µM | TGI (A549 NSCLC): > 100 µM | GI50 (HCT-15 colon): 37.9 µM | TGI (HCT-15 colon): > 100 µM | GI50 (RXF 393 renal): 32.3 µM | TGI (RXF 393 renal): > 100 µM | GI50 (SK-MEL-2 melanoma): > 100 µM | TGI (SK-MEL-2 melanoma): > 100 µM | GI50 (CCRF-CEM leukemia): 18.1 µM | TGI (CCRF-CEM leukemia): 45.5 µM | GI50 (LOX IMVI melanoma): 16.1 µM | TGI (LOX IMVI melanoma): 34.8 µM | GI50 (HS 578T breast): > 100 µM | TGI (HS 578T breast): > 100 µM | GI50 (COLO 205 colon): 14.4 µM | TGI (COLO 205 colon): 35 µM | GI50 (HCC-2998 colon): 17.4 µM | TGI (HCC-2998 colon): 38.4 µM | GI50 (UO-31 renal): 54.2 µM | TGI (UO-31 renal): > 100 µM | GI50 (NCI-H226 lung): > 100 µM | TGI (NCI-H226 lung): > 100 µM | GI50 (SNB-19 CNS): > 100 µM | TGI (SNB-19 CNS): > 100 µM | GI50 (HOP-92 NSCLC): > 100 µM | TGI (HOP-92 NSCLC): > 100 µM | GI50 (UACC-62 melanoma): 23 µM | TGI (UACC-62 melanoma): > 100 µM | GI50 (U251 CNS): 34.8 µM | TGI (U251 CNS): > 100 µM | GI50 (SF-539 CNS): 31.7 µM | TGI (SF-539 CNS): > 100 µM | GI50 (UACC-257 melanoma): > 100 µM | TGI (UACC-257 melanoma): > 100 µM | GI50 (HL-60(TB) leukemia): 47.2 µM | TGI (HL-60(TB) leukemia): > 100 µM | GI50 (KM12 colon): > 100 µM | TGI (KM12 colon): > 100 µM

Oc1c2cccc1Cc1cccc3c1OCCOCCOCCOCCOc1c(cccc1Cc1cccc(c1O)C3)C2
TGI (SK-OV-3 ovarian): > 100 µM | TGI (HT29 colon): > 100 µM | TGI (ACHN renal): > 100 µM | TGI (OVCAR-3 ovarian): > 100 µM | TGI (HCT-116 colon): > 100 µM | TGI (K-562 leukemia): > 100 µM | TGI (BT-549 breast): > 100 µM | TGI (A498 renal): > 100 µM | TGI (T-47D breast): > 100 µM | TGI (OVCAR-4 ovarian): > 100 µM | TGI (OVCAR-5 ovarian): > 100 µM | TGI (SW-620 colon): > 100 µM | TGI (MDA-MB-231 breast): > 100 µM | TGI (SNB-75 CNS): 87.3 µM | TGI (CAKI-1 renal): > 100 µM | TGI (SF-295 CNS): > 100 µM | TGI (M14 melanoma): > 100 µM | TGI (SK-MEL-28 melanoma): > 100 µM | TGI (EKVX NSCLC): > 100 µM | TGI (786-0 renal): > 100 µM | TGI (SF-268 CNS): > 100 µM | TGI (MDA-MB-435): > 100 µM | TGI (RPMI-8226 leukemia): > 100 µM | TGI (IGROV1 ovarian): > 100 µM | TGI (PC-3 prostate): > 100 µM | TGI (NCI-H23 lung): > 100 µM | TGI (MOLT-4 leukemia): > 100 µM | TGI (NCI-H522 lung): > 100 µM | TGI (OVCAR-8 ovarian): > 100 µM | TGI (SN12C renal): > 100 µM | TGI (SK-MEL-5 melanoma): > 100 µM | TGI (NCI/ADR-RES ovarian): > 100 µM | TGI (SR leukemia): > 100 µM | TGI (MCF7 breast): > 100 µM | TGI (DU-145 prostate): > 100 µM | TGI (TK-10 renal): > 100 µM | TGI (HOP-62 NSCLC): > 100 µM | TGI (A549 NSCLC): > 100 µM | TGI (HCT-15 colon): > 100 µM | TGI (RXF 393 renal): > 100 µM | TGI (SK-MEL-2 melanoma): > 100 µM | TGI (CCRF-CEM leukemia): > 100 µM | TGI (LOX IMVI melanoma): > 100 µM | TGI (HS 578T breast): > 100 µM | TGI (COLO 205 colon): > 100 µM | TGI (HCC-2998 colon): > 100 µM | TGI (UO-31 renal): > 100 µM | TGI (NCI-H226 lung): 81 µM | TGI (SNB-19 CNS): > 100 µM | TGI (HOP-92 NSCLC): > 100 µM | TGI (UACC-62 melanoma): > 100 µM | TGI (U251 CNS): > 100 µM | TGI (SF-539 CNS): > 100 µM | TGI (UACC-257 melanoma): > 100 µM | TGI (KM12 colon): > 100 µM
